Laboratory results: patent US20260355168A1, “COMPOSITIONS AND METHODS FOR TREATING AND DETECTING CANCER” (CASE WESTERN RESERVE UNIVERSITY, priority 2022, published 2026)
Entries after “also recorded” stand apart in the source; their conditions may differ.

Experiments:
[1] = biological target: PTPμ (Homo sapiens, UniProt P28827); assay: PTPμ-dependent Sf9 aggregation assay; assay type: cell-based; conditions: 100 μM; 20 min pretreatment; in words
[2] = test system: LN229 cells; assay: LN229 scratch wound healing assay; assay type: cell-based, human; conditions: for activity at 100 µM: Homo sapiens, LN-229, normalized to DMSO controls, read-out: LN229 scratch wound closure relative to DMSO controls
From the text: FIGS. 3(A-D) illustrate a histogram and images of the LN229 scratch wound assays. A. Histogram showing the effects of all soluble wedge-targeted compounds on LN229 scratch wound closure. Cell movement into the scratches was quantified from scratch wound widths at the start and end of the assay and normalized to the average movement of cells in the unblinded DMSO control samples. Data is presented as average percentages±standard error of the means (s.e.m.), and compound bar codes are shown on the x-axis. The majority of compounds were screened with an n=2. Some priority compounds were screened with 3-6 replicates. Representative endpoint images of samples treated with DMSO (B) and two priority inhibitors (C and D) are shown. The relative migration distances for each example are indicated.
(§1) Cells were seeded at a density of 2.7×10^4 cells per well into the internal wells of Incuyte1 Imagelock 96-well plates (Essen BioScience Inc., Ann Arbor, MI) and cultured overnight to form monolayers. Monolayers were wounded with an IncuCyte1 96-well Woundmaker Tool per the manufacturer's instructions. The outer wells were filled with PBS to buffer edge effects, and then the wounded monolayers were cultured in 100 μl of fresh media with compounds or DMSO (2×replicates at 100 μM or 1%, respectively) at 37 °C and 5% CO2. Images were captured every 4 hrs. using an Incucyte live cell imaging system equipped with the Scratch Wound Module. Scratch wound widths were calculated, per the manufacturer's instructions, at TO and at endpoint (typically T12 for LN229 and U87 cells and T8 for Gli36), which was taken as the last timepoint before wound closure. The cell migration distance was calculated from scratch widths [(T0Width−TendpointWidth)/2] and normalized to the average distance migrated by the DMSO controls. Values are presented as average percentages±standard errors of the means (s.e.m.). The majority of compounds were screened with an n of two, but the n for priority hits ranges from 2-6.
Scratch assays measure the ability of cells to migrate into a wound and close it creating a monolayer.

[3] = test system: Gli36 cells; assay: Gli36 glioma sphere formation and growth assay; assay type: cell-based, human; conditions: for Effect on Gli36 sphere formation: day 1; for Effect on Gli36 sphere formation / Effect on Gli36 sphere growth: in words
Experimental: FIGS. 6(A-E) illustrate a histogram and images showing the results of the Gli36 sphere formation and growth assays. Selected inhibitors, activators, and control compounds identified in LN229 and/or U87 scratch wound closure assays were retested at 100 μM in a secondary assay for glioma cell (Gli36) sphere formation and growth. A. Histogram showing the effects of the indicated compounds on Day 1 sphere footprint areas. Footprint areas were measured and normalized to the average footprint area of the unblinded DMSO-treated controls. On day 1, a larger footprint area indicates inhibition of aggregation. B. Histogram showing the effects of the indicated compounds on sphere growth. Changes in sphere footprint areas were calculated and normalized to the average size change of the unblinded vehicle-treated controls. On day 7, a smaller value indicates reduced growth. […] Data is presented as percentages±s.e.m. of 2-4 replicates. Representative images of samples treated with DMSO (C) and two priority inhibitors (D and E) are shown. Relative day 1 footprint areas and day 7 growth measurements are indicated for each example.
(§2) Cells were seeded at a density of 7500 cells per well into the internal wells of 96-well plates coated with 0.75% (wt/vol) PVA as previously described. Compounds were added (2×replicates per treatment) at the indicated final concentrations, and control wells were treated with matching concentrations of DMSO. The external wells of the plates were filled with PBS to buffer against edge effects, and the cells were incubated at 37 °C and 5% CO2 for 7 days. A Leica CTR6500 microscope fitted with an automated stage was used to capture brightfield images on day 1 and day 7, and sphere footprint areas were measured using Image J (v1.52a http://imagej.nih.gov/ij) as previously described. To quantify the effects of the compounds on day 1, the footprint areas of the treated wells were normalized to the average area of the matched DMSO control wells. To quantify the effects of the compounds on sphere growth, the change in the sphere footprint areas was calculated ([…]) and then normalized to the average size change of the matched DMSO samples. All values are presented as average percentages±s.e.m.

[4] = test system: glioma cells; assay: Glioma cell assays combined (scratch and sphere, several cell lines); assay type: cell-based, human; conditions: 100 μM; for Effect on glioma cells, overall: multiple assays and cell lines; for Effect on glioma cell migration: scratch assays
Experimental: FIG. 2 illustrates a schematic of a functional screening approach. Seventy-four PTPμ wedge-targeted compounds and 2 blinded DMSO samples were received from Atomwise and screened at 100 μM in scratch wound healing assays using two glioma cell lines (LN229 and U87). Selected active and control compounds were taken into secondary assays (Gli36 scratch and LN229 and Gli36 sphere formation and growth assays). Inhibitors selected as being active in primary and secondary screens were tested for effects on the survival of LN229 and Sf9 cells, and selected glioma-cell inhibitors and activators were screened for effects on Sf9-PTPμ aggregation, a highly specific test for PTPμ function.
as §1, §2

Chain of PTPμ (P28827 21-1452): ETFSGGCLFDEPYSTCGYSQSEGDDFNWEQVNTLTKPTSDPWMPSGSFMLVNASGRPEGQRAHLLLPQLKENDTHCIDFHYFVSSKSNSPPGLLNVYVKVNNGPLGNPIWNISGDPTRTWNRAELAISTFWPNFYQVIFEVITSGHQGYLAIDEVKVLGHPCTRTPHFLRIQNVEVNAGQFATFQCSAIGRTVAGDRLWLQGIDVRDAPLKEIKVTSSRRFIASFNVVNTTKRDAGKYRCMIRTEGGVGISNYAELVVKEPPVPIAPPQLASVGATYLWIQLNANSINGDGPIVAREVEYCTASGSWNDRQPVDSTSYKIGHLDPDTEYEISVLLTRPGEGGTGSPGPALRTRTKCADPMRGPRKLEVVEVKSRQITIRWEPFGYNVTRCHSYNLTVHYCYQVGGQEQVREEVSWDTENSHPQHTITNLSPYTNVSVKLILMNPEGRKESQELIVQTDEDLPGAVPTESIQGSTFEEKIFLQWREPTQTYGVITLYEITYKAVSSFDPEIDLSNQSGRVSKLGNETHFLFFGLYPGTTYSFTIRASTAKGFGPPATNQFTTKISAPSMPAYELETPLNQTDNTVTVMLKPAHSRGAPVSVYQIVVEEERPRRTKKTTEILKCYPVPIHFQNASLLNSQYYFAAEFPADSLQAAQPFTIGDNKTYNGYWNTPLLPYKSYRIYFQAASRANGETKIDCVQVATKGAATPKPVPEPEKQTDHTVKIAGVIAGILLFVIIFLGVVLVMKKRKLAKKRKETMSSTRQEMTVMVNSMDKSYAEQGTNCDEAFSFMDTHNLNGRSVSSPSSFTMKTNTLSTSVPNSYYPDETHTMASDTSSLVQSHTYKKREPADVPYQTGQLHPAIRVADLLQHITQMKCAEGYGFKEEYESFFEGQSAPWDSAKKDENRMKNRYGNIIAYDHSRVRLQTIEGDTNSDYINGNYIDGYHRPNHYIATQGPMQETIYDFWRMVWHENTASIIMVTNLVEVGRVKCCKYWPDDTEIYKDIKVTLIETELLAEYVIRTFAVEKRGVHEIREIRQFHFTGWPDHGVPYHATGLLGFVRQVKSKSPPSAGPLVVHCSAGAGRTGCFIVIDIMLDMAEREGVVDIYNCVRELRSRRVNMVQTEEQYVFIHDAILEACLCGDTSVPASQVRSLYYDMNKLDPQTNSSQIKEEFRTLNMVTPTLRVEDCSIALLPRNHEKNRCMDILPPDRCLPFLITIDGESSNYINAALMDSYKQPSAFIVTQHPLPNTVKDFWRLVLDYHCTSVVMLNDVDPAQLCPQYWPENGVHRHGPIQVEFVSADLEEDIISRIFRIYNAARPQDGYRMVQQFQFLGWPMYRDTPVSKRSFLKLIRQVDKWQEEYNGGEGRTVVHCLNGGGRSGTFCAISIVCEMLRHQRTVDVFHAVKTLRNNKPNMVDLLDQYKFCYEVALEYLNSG

Structure (SMILES) | Effect on PTPμ-dependent Sf9 aggregation / adhesion [1] | Effect on LN229 cell morphology in scratch assay ([2]; 100 μM) | activity at 100 µM [2] [%] | Effect on Gli36 sphere formation ([3]; 100 μM) | Effect on Gli36 sphere growth ([3]; 100 μM, day 7) | Effect on glioma cells, overall [4] | Effect on glioma cell migration [4] | Effect on LN229 scratch wound closure / migration ([2]; 100 μM, in words) | Gli36 sphere appearance ([3]; 100 μM, day 7) | activity at 100 µM ([3]; Homo sapiens, GLI36, 168 h, read-out: Gli36 sphere growth (indicated value; sample fell apart on day 1), growth could not be calculated, indicated as '0' growth) [%]
O=C(NCc1nc(-c2ccncc2)no1)c1ccc(Cl)c(S(=O)(=O)NCc2ccccc2)c1 [Compound 247678791] | PTPμ-dependent adhesion; also recorded: inhibitors; also recorded: fewer/smaller aggregates; also recorded: affect PTPμ-mediated aggregation | subtle effects on the morphology of LN229 cells | < 60 | slowed condensation of Gli36 cells | grew more slowly than controls | highly penetrant inhibitors; also recorded: able to inhibit glioma cells | able to inhibit glioma cell migration |  |  | 
COc1cc(C)ccc1OCC(=O)Nc1nc(-c2c[nH]c(C(N)=O)c2)cs1 [Compound 247678835] | PTPμ-dependent adhesion; also recorded: inhibitors; also recorded: fewer/smaller aggregates; also recorded: strongest pan-inhibitor to affect PTPμ-dependent aggregation; also recorded: affect PTPμ-mediated aggregation | rounded with no ruffles | < 60 | slowed aggregation of Gli36 cells | grew poorly | highly penetrant inhibitors; also recorded: able to inhibit glioma cells | able to inhibit glioma cell migration | completely blocked the movement of cells into the scratch; also recorded: strongest inhibitor identified in the initial screen of LN229 migration | more optically translucent than control spheres on Day 7 | 
CCN(C(=O)CN1C(=O)NC(C)(CCC(C)C)C1=O)c1cccc2ccccc12 (stereo not shown) [Compound 247677616] | not shown to affect PTPμ-mediated aggregation; also recorded: did not affect PTPμ-dependent adhesion | rounding | < 60 | completely blocked Gli36 sphere formation; also recorded: fell apart on day 1 |  | highly penetrant inhibitors in glioma cell assays |  |  |  | 0
